Test system: peripheral blood mononuclear cells
Experiment: Microculture tetrazolium assay (MTA) cytotoxicity in PBMNC
Conditions: viability of PBMC
Procedure: Percent inhibition of viral replication was calculated by comparing the p24 and RT activity values from the test substance-treated infected cells with those from untreated infected cells. In parallel, the cytotoxicity of the compounds was examined using a microculture tetrazolium assay (MTA) of cell proliferation, as described.in the Zarling, Enrice, and Uckun articles Supra).
Cellular Assays of Anti-HIV Activity and Cytotoxicity. […] Percent viral inhibition was calculated by comparing the RT activity values from the test substance-treated infected cells with RT values from untreated infected cells (i.e., virus controls).
Antiviral susceptibility assays. Phenotypic drug susceptibility studies of HIV-1 isolates and strains were performed by measuring the production of the p24 gag protein in peripheral blood mononuclear cells (PBMC) from seronegative healthy volunteers in the presence of increasing concentrations of the anti-HIV agent using the quantitative Coulter HIV-1 p24 antigen ezyme immunoassay (EIA) and HIV-1 p24 Antigen Kinetic Standard (Beckman Coulter), as previously described (Uckun, 1998, Antimicrobial Agents and Chemotherapy 37(4): 835-38). Informed consent was obtained from the blood donors according to DHHS guidelines using consent forms approved by the Institutional Review Board. In brief, PBMC were cultured for 72 h in RPMI 1640 medium (Gibco) supplemented with 20% (vol/vol) heat-inactivated fetal bovine serum, 5% human interleukin-2 (Zeptometrix), 2 mM L-glutamine, 25 mM HEPES, 2 g/L NaHCO3, 100 U/ml penicillin/streptomycin (Gibco), 50 μg/ml gentamicin (Gibco), and 5 μg/ml phytohemagglutinin-P (PHA-P) (Sigma) for 24-72 hours prior to exposure to HIV at a multiplicity of infection of 0.001-0.1 during a 1-h adsorbtion period at 37±1° C. in a humidified 5-7% CO2 atmosphere. Subsequently, cells were cultured in 96-well microtiter plates (100 μl/well; 2×10^6 cells/ml, triplicate wells) in the presence of the anti-HIV agents at 6-7 different concentrations ranging from 0.0001 μM to 100 μM, and 25 μL aliquots of culture supernatants were removed from the wells on day 6 after infection for p24 EIA, as previously described (Uckun, 1998, Antimicrobial Agents and Chemotherapy, 37(4):835-38). Controls included uninfected and untreated cells (background control) and infected but untreated (virus control) cells. The p24 EIA utilizes a murine monoclonal antibody to HIV core protein used to coat microwell strips to which the antigen present in the test culture supernatant samples binds. Percent inhibition of viral replication was calculated by comparing the p24 values from the test substance-treated infected cells with p24 values from untreated infected cells (i.e., virus controls). The IC50 values were determined using the Statview statistics program (SAS Institute, Inc.). In parallel, the effects of various treatments on cell viability were also examined as previously described (Uckun, 1998, Antimicrobial Agents and Chemotherapy, 42:383-388). In brief, noninfected PBMC were treated with each compound for 5 days under identical experimental conditions. A microculture tetrazolium assay (MTA) was performed to quantitate cellular proliferation (Uckun, 1998, Antimicrobial Agents and Chemotherapy, 42:383-388).
In parallel, the cytotoxicity of the compounds was examined using a microculture tetrazolium assay (MTA) of cell proliferation, as described (in the Zarling, Enrice, and Uckun articles Supra).

COC(=O)C(C)NP(=O)(OC[C@@H]1C=C[C@H](n2cc(C)c(=O)[nH]c2=O)O1)Oc1ccc(Br)cc1 (stereo partly shown) [Compound 1c, d4T-5′-[p-bromo-phenylmethoxyalaninyl phosphate]]
CC50: > 100 µM
